From patent US20030100572A1, “Novel pyridopyrimidones and uses thereof” (ARIAD PHARMACEUTICALS,INC., priority 2001, published 2003)

Experiment: Hydroxyapatite Assay (hydroxyapatite adsorption chromatography)
Type: physicochemical
Details: corrected retention K=(retention time-void time)/void on TSK-Gel HA 1000 HPLC column; linear gradient 10 mM to 500 mM sodium phosphate, 0.15 N NaCl, pH 6.8
Text: Hydroxyapatite is the principal mineral component of bone. Hydroxyapatite adsorption chromatography is used as an assay to evaluate the bone-targeting potential of both individual bone-targeting moieties (“monomers”) and of pharmaceuticals incorporating bone-targeting groups.
The rentention time of the compound is expressed in terms of K=(retention time-void time)/void. This K value is corrected using two reference compounds to correct from inter-column and inter-system variation to obtain a K′ value.
Reference Compounds: K′ values were determined for known bone targeted compounds, the bisphosphonate, alendronate and tetracycline.

K′ value: 3.7
Structure (SMILES): NCCCC(O)(P(=O)(O)O)P(=O)(O)O [Alendronate, alendronate]
